Experimental data published in ChEMBL document CHEMBL1201862, “PubChem BioAssay data set” (2004).
Activity calls are given as the source filed them.

Assays:
[1] = Luminescence Cell-Based Dose Confirmation HTS to Identify Activators of 5'UTR Stem-Loop Driven Alpha-Synuclein mRNA Translation in H4 Neuroglioblastoma Cells. [Related pubchem assays: 1829 (Project Summary), 1814 (Primary HTS)]; format: functional
[2] = system: H4; assay: Luminescence Cell-Based Dose Response HTS to Identify Activators of 5'UTR Stem-Loop Driven Prion Protein mRNA Translation in H4 Neuroglioblastoma Cells. [Related pubchem assays: 1829 (Project Summary), 1814 (Primary HTS)]; format: functional; conditions: Homo sapiens
[3] = target: T1, Histone-lysine N-methyltransferase NSD2 (Homo sapiens, UniProt O96028); format: biochemical
T1 sequence (O96028 whole entry): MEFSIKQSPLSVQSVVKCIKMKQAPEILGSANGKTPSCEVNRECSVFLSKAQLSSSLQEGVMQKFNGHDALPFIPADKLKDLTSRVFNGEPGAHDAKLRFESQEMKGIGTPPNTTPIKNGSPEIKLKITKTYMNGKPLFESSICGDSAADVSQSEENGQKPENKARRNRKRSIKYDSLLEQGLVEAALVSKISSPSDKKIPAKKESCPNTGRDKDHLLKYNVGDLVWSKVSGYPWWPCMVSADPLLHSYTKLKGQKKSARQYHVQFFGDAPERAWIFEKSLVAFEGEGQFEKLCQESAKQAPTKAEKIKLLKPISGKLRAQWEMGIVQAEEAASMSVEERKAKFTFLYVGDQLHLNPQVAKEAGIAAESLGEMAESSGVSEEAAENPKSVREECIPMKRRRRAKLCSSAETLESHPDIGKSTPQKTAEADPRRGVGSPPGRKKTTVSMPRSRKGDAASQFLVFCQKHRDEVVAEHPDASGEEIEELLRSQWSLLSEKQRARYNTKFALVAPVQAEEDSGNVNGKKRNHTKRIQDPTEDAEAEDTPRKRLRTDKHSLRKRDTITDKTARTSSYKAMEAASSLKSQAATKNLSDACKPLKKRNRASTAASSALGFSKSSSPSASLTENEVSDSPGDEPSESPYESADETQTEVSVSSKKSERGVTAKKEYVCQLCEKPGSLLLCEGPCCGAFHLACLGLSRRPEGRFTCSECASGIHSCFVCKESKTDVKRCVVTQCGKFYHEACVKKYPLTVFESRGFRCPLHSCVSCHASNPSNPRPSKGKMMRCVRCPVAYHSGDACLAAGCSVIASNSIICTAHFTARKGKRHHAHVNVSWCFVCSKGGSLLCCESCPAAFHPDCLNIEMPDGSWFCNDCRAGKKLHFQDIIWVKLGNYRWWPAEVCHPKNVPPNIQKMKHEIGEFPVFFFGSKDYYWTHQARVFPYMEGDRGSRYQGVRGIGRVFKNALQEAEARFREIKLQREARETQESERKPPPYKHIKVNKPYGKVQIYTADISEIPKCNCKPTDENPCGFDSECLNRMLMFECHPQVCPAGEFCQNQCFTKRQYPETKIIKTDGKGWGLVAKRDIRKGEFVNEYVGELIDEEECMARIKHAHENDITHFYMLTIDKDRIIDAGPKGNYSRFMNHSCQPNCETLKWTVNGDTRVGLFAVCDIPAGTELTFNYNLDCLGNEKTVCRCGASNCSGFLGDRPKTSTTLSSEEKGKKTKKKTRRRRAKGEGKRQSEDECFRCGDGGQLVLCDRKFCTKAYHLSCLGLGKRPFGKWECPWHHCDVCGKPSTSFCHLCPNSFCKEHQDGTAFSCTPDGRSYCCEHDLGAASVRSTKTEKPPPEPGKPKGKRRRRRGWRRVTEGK

[4] = target: Heat shock protein HSP 90-alpha (Homo sapiens, UniProt P07900); format: functional, organism-based
[5] = control 3'UTR Renilla luciferase suppression, dose response, counter-screen for Shn3 inhibitor project, cell-based, Clone20-Shn3RL, cherry-picked (AID 624133); format: functional
[6] = system: Streptococcus sp. 'group A'; assay: growth inhibition of control SK(-) GAS strain, dose response, counter-screen for streptokinase expression inhibitor project, luminescence, kanamycin, BacTiterGlo, confirmation (AID 1900); format: functional, organism-based
[7] = cells; format: functional, cell-based
[8] = cytotoxicity toward NIH3T3 fibroblasts, dose response, counter-screen, cell-based, ATP luminescence, mouse fibroblasts (AID 2010); format: functional;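 note: cells exposed to compound for about 90 hours before reading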
[9] = system: HEK293; assay: SAR Analysis of small molecule inhibitors of T-cell specific antigen receptor-induced NF-kB activation in a HEK-293T cell line using a luminescence assay - Set 2. [Related pubchem assays (depositor defined):AID435003, AID435012, AID489026]; format: functional, cell-based; conditions: Homo sapiens
[10] = inhibitors of intracellular T. cruzi replication, confirmation, NIH3T3 host cells, beta-gal luminescence (AID 2044); format: functional, cell-based;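 note: intracellular parasites grown in NIH/3T3 mouse fibroblasts as host cells; luminescent beta-galactosidase reporter signal from transgenic T. cruzi replicating inside host cells; inhibitors lower the luminescence signal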
[11] = system: Jurkat; assay: SAR Analysis of small molecule inhibitors of T-cell specific antigen receptor-induced NF-kB activation in a Jurkat cell line using a luminescence assay - Set 2. [Related pubchem assays (depositor defined):AID435003, AID435012, AID465]; format: functional, cell-based; conditions: Homo sapiens
[12] = Shn3 3'UTR reporter inhibitors, dose response, cell-based, Clone20 osteoblasts, firefly luciferase, cherry-picked (AID 624132); format: functional;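 note: firefly luciferase luminescence from reporter carrying the Shn3 3'UTR in osteoblasts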
[13] = Counterscreen for AddAB inhibitors: absorbance-based bacterial cell-based high throughput dose response assay for inhibitors of bacterial viability. [Related pubchem assays (depositor defined):AID435030, AID449728, AID449731, AID488942, AID488955, AID488956]; format: functional
[14] = system: HEK293; assay: cytotoxicity in HEK293T NF-kB-Luc cells, SAR follow-up, cytotoxicity control for NF-kB activator project, cell-based, resazurin fluorescence (AID 493251); format: functional
[15] = system: Streptococcus; assay: Group A Streptococcus viability loss, dose response, counter-screen for streptokinase expression inhibitor project, luminescence, BacTiterGlo (AID 1915); format: functional, organism-based;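 note: potency for reduction of bacterial viability or growth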
[16] = target: Eukaryotic translation initiation factor 4E (Mus musculus, UniProt P63073); assay: eIF4E–eIF4G protein interaction inhibitors, dose response, biochemical, TR-FRET (AID 855); format: functional;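 note: potency for disrupting eIF4E binding to eIF4GI seen as loss of FRET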
Eukaryotic translation initiation factor 4E, sequence (P63073 whole entry): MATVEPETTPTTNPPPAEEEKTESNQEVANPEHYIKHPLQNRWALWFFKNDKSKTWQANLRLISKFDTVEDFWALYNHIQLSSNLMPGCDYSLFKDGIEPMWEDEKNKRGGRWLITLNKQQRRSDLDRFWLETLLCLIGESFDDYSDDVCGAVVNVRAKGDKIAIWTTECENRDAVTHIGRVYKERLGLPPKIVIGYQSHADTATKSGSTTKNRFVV

Structure (SMILES)	EC50 [1]	EC50 [2]	AC50 [3]	AC50 [4]	AC50 [5]	EC50 [6]	EC50 [7]	EC50 [8]	IC50 [9]	EC50 [10]	IC50 [11]	AC50 [12]	IC50 [13]	IC50 ([14]; Homo sapiens, HEK293)	IC50 ([14]; hek293)	EC50 [15]	IC50 [16]
CC(=O)N(/N=C1\Sc2ccccc2C1=O)c1ccccc1C	2.51 µM (active)	33.4 µM (active)	0.548 µM (active)	–	–	–	–	–	–	–	–	–	–	–	–	–	–
CCCC(=O)NC(c1ccc(Cl)cc1)c1ccc2cccnc2c1O (stereo not given)	–	–	–	4.04 µM (active)	2.72 µM (active)	2.17 µM (active)	5.77 µM (active)	0.425 µM (active)	4.23 µM (active)	0.226 µM (active)	2.84 µM (active)	0.937 µM (active)	> 119 µM (inactive)	8.63 µM (active)	9.55 µM (active)	30.1 µM (active)	–
Cc1ccc(-n2sc3ccccc3c2=O)cc1	> 120 µM (not active)	88.2 µM (active)	–	–	–	1.02 µM (active)	–	9.71 µM (active)	–	0.361 µM (active)	–	–	–	–	–	3.63 µM (active)	15.2 µM (active)
CCC(=O)NC(c1ccc(C)cc1)c1ccc2cccnc2c1O (stereo not given)	–	–	–	3.35 µM (active)	0.383 µM (active)	–	4.3 µM (active)	0.687 µM (active)	7.02 µM (active)	0.481 µM (active)	3.26 µM (active)	0.704 µM (active)	> 119 µM (inactive)	12.9 µM (active)	–	–	–
N/C(=N\N=C/c1ccc(-c2ccc(O)c(C(=O)O)c2)o1)N[N+](=O)[O-]	–	–	7.57 µM (active)	–	–	–	–	–	–	–	–	–	–	–	–	–	63.6 µM (inactive)
